Experimental data reported in patent US20140309172A1, “ICE INHIBITING COMPOUNDS AND USES THEREOF” (priority 2010, published 2014).

How the values were obtained:
[1] = Preliminary tests of blood-brain barrier penetration in animals; assay type: in vivo
[2] = system: M17 cells overexpressing alpha-synuclein; assay: Cell viability of M17 cells overexpressing alpha-synuclein (LIVE/DEAD assay); assay type: cell-based, human
Source text: Humans have 28 calpain and caspase isozymes—a large but not impossible number to test. RNAi was used to knock down each of these in turn in a neuronal cell culture model of PD. It is a neuroblastoma cell line (BE(2)-M17) carrying a wild-type α-synuclein overexpressing vector. BE(2)-M17 is a clone of the SK-N-BE(2) cell line that was established in November of 1972 from a bone marrow biopsy taken from a child with neuroblastoma. Synuclein on its own is not toxic to these cells, but it is toxic when combined with an oxidative stress agent such as rotenone or menadione. Greater than 90% reduction of mRNA levels for each of the 29 protease genes was routinely achieved, and greater than 50% reduction in protein levels (typically, about 70% reduction) was routinely achieved.
A cell viability assay was performed using LIVE/DEAD (molecular probes) assay according to the manufacture instructions. As summarized in FIG. 10, both RNAi knockdown of caspase-1/ICE and treatment with the caspase-1/ICE inhibitor block synuclein fragment formation in nerve cells and should inhibit synuclein aggregation in neuronal cells derived from one or more mouse models of PD.

[3] = system: M17 cells carrying empty pcDNA3 vector; assay: Cell viability of M17 cells with pcDNA3 empty vector in the presence of menadione; assay type: cell-based, human; conditions: low concentrations of menadione, FIG. 8

SMILES	BBB penetration [1]	rescue from alpha-synuclein-induced toxicity (cell viability) ([2]; M17 cells overexpressing alpha-synuclein, FIG. 10)	toxicity to M17 cells carrying empty pcDNA3 vector [3]	toxicity to M17 cells overexpressing a-synuclein ([2]; low concentrations of menadione, FIG. 8)
CC(C)(C)[C@H](NC(=O)c1ccc(N)c(Cl)c1)C(=O)N1CCC[C@H]1C(=O)N[C@H](C#N)CC(=O)O [NCGC00185682]	low			
CCO[C@@H]1OC(=O)C[C@@H]1NC(=O)[C@@H]1CCCN1C(=O)[C@@H](NC(=O)c1ccc(N)c(Cl)c1)C(C)(C)C [VX-765]	low	rescued		
CC1=CC(=O)c2ccccc2C1=O [menadione]			not toxic	toxic
